Experimental data taken from ChEMBL document CHEMBL1127156, “m-Alkyl, ,,-trifluoroacetophenones: A new class of potent transition state analog inhibitors of acetylcholinesterase” (Bioorg Med Chem Lett, 1993).

Target: Acetylcholinesterase (Torpedo californica, UniProt P04058)
Test: Tested for the ability to inhibit Acetylcholinesterase (AChE) from Torpedo californica
Parameters: species or system Tetronarce californica

Chain of Acetylcholinesterase (P04058 whole entry): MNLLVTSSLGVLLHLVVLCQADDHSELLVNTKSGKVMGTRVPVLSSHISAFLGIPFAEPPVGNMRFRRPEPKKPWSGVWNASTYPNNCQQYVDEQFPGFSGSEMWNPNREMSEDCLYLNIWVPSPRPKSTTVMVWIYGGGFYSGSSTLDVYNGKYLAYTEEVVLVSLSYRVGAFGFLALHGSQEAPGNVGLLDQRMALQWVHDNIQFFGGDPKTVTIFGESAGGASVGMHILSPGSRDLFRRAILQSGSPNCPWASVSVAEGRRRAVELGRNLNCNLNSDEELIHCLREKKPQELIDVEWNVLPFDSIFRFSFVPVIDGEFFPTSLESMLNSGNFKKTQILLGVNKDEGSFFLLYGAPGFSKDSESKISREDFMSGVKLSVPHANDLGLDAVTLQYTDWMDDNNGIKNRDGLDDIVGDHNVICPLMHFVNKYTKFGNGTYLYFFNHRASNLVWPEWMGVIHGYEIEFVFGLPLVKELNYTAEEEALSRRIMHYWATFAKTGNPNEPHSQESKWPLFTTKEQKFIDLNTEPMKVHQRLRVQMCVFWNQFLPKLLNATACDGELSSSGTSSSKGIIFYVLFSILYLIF

SMILES | Ki [nM]
CC(C)c1cccc(C(=O)C(F)(F)F)c1 | 0.0085
Cc1cccc(C(=O)C(F)(F)F)c1 | 2.4
O=C(c1cccc(C(F)(F)F)c1)C(F)(F)F | 0.39
CCc1cccc(C(=O)C(F)(F)F)c1 | 0.39
CC(C)(C)c1cccc(C(=O)C(F)(F)F)c1 | 0.0037
